According to article PMC7959842, “Deregulation of Factor H by Factor H-Related Protein 1 Depends on Sialylation of Host Surfaces” (Frontiers in Immunology, 2021):

Tests used:
Assay type in all cases: binding
[1] = target: T1, FH18-20 (Homo sapiens, UniProt P08603); assay: intrinsic tryptophan fluorescence (nanoDSF), titration; also STD NMR; conditions: 50 mM HEPES pH 7.4, 150 mM NaCl, 3 mM EDTA; 20 and 37 °C; in solution
T1 construct: gene CFH; C-terminal fragment CCP18-20, monomeric, recombinant from Pichia pastoris
T1 sequence (P08603 1046-1231 limits assumed): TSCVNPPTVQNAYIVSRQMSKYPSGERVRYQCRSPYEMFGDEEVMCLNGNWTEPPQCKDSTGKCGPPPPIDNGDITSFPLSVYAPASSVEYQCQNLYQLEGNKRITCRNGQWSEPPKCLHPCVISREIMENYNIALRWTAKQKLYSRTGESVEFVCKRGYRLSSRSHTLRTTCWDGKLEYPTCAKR

[2] = target: T2, FH19-20 (Homo sapiens, UniProt P08603); assay: SPR, immobilised glycan, concentration series; conditions: labelled compound (biotin-coupled on streptavidin chip); PBS, 0.005% Tween20, 25 °C; rough estimate, saturation not reached; read-out: affinity
T2 construct: gene CFH; C-terminal fragment CCP19-20, recombinant from Pichia pastoris
T2 sequence (P08603 1107-1231 limits assumed): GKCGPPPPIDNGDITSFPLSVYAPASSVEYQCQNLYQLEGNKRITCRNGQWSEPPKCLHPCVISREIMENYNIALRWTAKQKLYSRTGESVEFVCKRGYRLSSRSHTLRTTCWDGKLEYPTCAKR

[3] = target: T1, FH18-20; assay: SPR, immobilised glycan, concentration series; conditions: labelled compound (biotin-coupled on streptavidin chip); PBS, 0.005% Tween20, 25 °C; rough estimate, saturation not reached; read-out: affinity

Row | Molecule | affinity [1] | Kd [2] [µM] | Kd [3] [µM]
1 | CC(=O)N[C@H]1[C@H]([C@H](O)[C@H](O)CO)O[C@@](O[C@H]2[C@@H](O)[C@@H](CO)O[C@@H](O[C@H]3[C@H](O)[C@@H](O)C(O)O[C@@H]3CO)[C@@H]2O)(C(=O)O)C[C@@H]1O (stereo partly drawn) [3’-sialyllactose] | monovalent interactions in solution were generally weaker; with estimated affinities in the millimolar range | – | –
2 | biotinylated 3´-sialyl-N-acetyllactosaminide | – | > 100 | > 100
